Assay [1] has as its system AGS cells (K-Ras G12D). Put plainly: Phospho-ERK1/2(THR202/TYR204) HTRF assay. In kind it is cell-based. Particulars: Homo sapiens, 2 hours incubation, read-out: p-ERK, IC50 AGS. On the procedure: (§1) p-ERK (MAPK pathway) inhibition activity of each of compounds in a variety of K-Ras mutant and K-Ras WT cell lines indicated in Table 12 was evaluated. MKN-1 with K-Ras WT amplification is also a K-Ras dependent cell line.
(§2) Each of cells in culture medium was seeded in 96-well plates at density indicated in Table 16 and then put in a cell incubator to incubate overnight. The next day, the culture medium was removed and the compound diluted in assay medium was added in each well. After 2 hours incubation in a cell incubator, the assay medium in 96-well plates was removed, then 50 μL of 1× blocking reagent-supplemented lysis buffer (Cisbio) was added and the plates were incubated at 25° C. for 45 min with shaking. 10 μL of cell lysates from the 96-well plates were transferred to a 384-well plate (Greiner) containing […] HTRF® pre-mixed antibodies (Cisbio 64AERPEH). The plate was incubated 4 hours at 25° C. and then read HTRF signals on Tecan Spark multimode microplate reader. The data were analyzed using a 4-parameter logistic model to calculate IC50 values.

Assay [2] relates to SW620 cells (K-Ras G12V). Put plainly: Phospho-ERK1/2(THR202/TYR204) HTRF assay. In kind it is cell-based. As to conditions: Homo sapiens, SW-620, 2 hours incubation, read-out: p-ERK, IC50 SW620. On the procedure:
as §1, §2

For assay [3], the system named is AGS cells (K-Ras G12D). The experiment in a line: 2D cell growth inhibition assay (CellTiter-Glo). In kind it is cell-based. As to conditions: Homo sapiens, 6 days, absolute IC50. As for the experimental part: (§3) The cell growth inhibition activity of each of compounds was tested by performing cell growth inhibition assays on a variety of K-Ras mutant and K-Ras WT cell lines indicated in Table 14.
(§4) Each of cells in culture medium was plated in TC-treated 96-well plates at a density indicated in Table 14 and incubated in a cell incubator overnight. The next day, each of compounds was diluted in culture medium and added to the plates. After 6 days incubation in cell incubator, the cell viability was detected by CellTiter-Glo® Cell Viability Assay kit (Promega).

Assay [4] has as its system AsPC-1 cells (K-Ras G12D). The experiment in a line: 2D cell growth inhibition assay (CellTiter-Glo). Particulars: Homo sapiens, ASPC1, AsPC-1 (G12D), 6 days, absolute IC50. In kind it is cell-based. As for the experimental part: as §3, §4
Assay [5] concerns SW620 cells (K-Ras G12V). The experiment in a line: 2D cell growth inhibition assay (CellTiter-Glo). Particulars: Homo sapiens, SW-620, 6 days, absolute IC50. In kind it is cell-based. On the procedure:
as §3, §4

In assay [6] the target is T1, K-Ras G12V (Homo sapiens, UniProt P01116, G12V). The experiment in a line: biochemical.
Assay [7] addresses T1, K-Ras G12V. The experiment in a line: biochemical. This is another data set of the same source.
Assay [8] deals with T2, K-Ras G12D (Homo sapiens, UniProt P01116, G12D). The experiment in a line: biochemical.
For assay [9], the target named is T2, K-Ras G12D. The experiment in a line: biochemical. The source holds these as a separate data set.

Read-outs that look alike come from different tables or passages of the source.

T1 sequence (P01116 1-169 isoform P01116-2 G12V): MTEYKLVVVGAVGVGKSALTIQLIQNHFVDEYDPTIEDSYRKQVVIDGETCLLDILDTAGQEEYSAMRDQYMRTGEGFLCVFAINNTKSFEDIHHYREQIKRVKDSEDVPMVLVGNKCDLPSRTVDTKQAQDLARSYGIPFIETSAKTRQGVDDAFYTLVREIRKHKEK
T2 sequence (P01116 1-169 isoform P01116-2 G12D): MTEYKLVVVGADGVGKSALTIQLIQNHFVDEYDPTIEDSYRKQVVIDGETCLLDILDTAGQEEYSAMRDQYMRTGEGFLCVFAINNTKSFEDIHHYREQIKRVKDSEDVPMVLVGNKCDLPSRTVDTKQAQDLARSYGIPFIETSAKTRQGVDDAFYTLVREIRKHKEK

Consider `C#Cc1c(F)ccc2cc(O)cc(-c3cc4c5c(nc(OC[C@@]67CCCN6C[C@H](F)C7)nc5c3F)N3CCOCCC3CO4)c12` (some centres unmarked) [Compound 1], for which the half-maximal inhibitory concentration (IC50) in assay [1] worked out at 16.2 nM; in assay [2], 38.2 nM; in assay [3], 326 nM; in [4] it was 987 nM; in assay [5], 100 nM.
On the same counts, the results for `C#Cc1c(F)ccc2cc(O)cc(-c3nc4c5c(nc(OCC67CCCN6CC(F)C7)nc5c3F)N3CCOCCC3CO4)c12` (centres unmarked) [Compound 2] are 2.33 nM, 5.2 nM, 5.07 nM, 134 nM and 13.1 nM.
The like results for `C#Cc1c(F)ccc2cc(O)cc(-c3nc4c5c(nc(OC[C@@]67CCCN6C[C@H](F)C7)nc5c3F)N3CCCOCC3CO4)c12` (some centres unmarked) [Compound 3] were, in that order, 2.02 nM, 4.61 nM, 1.73 nM, 19.6 nM and 3.32 nM.
Consider `CCc1c(F)ccc2cc(O)cc(-c3cc4c5c(nc(OC[C@@]67CCCN6C[C@H](F)C7)nc5c3F)N3CCOCCC3CO4)c12` (some centres unmarked) [Compound 4], for which the IC50 was 14.7 nM in assay [6], above 1000 nM in assay [7], 32.7 nM in assay [8] and above 1000 nM in assay [9].
For `C#Cc1c(F)ccc2cc(O)cc(-c3nc4c5c(nc(OC[C@@]67CCCN6C[C@H](F)C7)nc5c3F)N3CCCOC[C@H]3CO4)c12` [Compound 5], the 50% inhibitory concentration (IC50) in [1] amounted to 0.525 nM; in [2], 1.03 nM; in [3], 0.466 nM; in assay [5], 0.819 nM.
Turning to `C#Cc1c(F)ccc2cc(O)cc(-c3nc4c5c(nc(OC[C@@]67CCCN6C[C@H](F)C7)nc5c3F)N3CCCOC[C@@H]3CO4)c12` [Compound 6], the IC50 in assay [1] was found to be 1.5 nM; in [2], 10 nM; in assay [3] it was 7.57 nM; in assay [4], 80.1 nM; in assay [5], 5.61 nM.
As to `C#Cc1c(F)ccc2cc(O)cc(-c3nc4c5c(nc(OC[C@@]67CCCN6C[C@H](F)C7)nc5c3F)N3CCCOC[C@H]3CN4C)c12` [Compound 9], the IC50 in [1] worked out at 6.58 nM; in assay [2], 18.6 nM; in [3], 6.8 nM; in assay [4], 64.4 nM; in [5], 7.67 nM.
On the same counts, the results for `C#Cc1c(F)ccc2cc(O)cc(-c3nc4c5c(nc(OC[C@@]67CCCN6C[C@H](F)C7)nc5c3F)N3CCOCC3CO4)c12` (some centres unmarked) [Compound 11] are 26.3 nM, 16.8 nM, 31.8 nM, 346 nM and 25 nM.
`C#Cc1c(F)ccc2cc(O)cc(-c3nc4c5c(nc(OC[C@@]67CCCN6C[C@H](F)C7)nc5c3F)N3CCOCC3CCO4)c12` (some centres unmarked) [Compound 12]: the half-maximal inhibitory concentration (IC50) in assay [1] was found to be 48 nM; in [2] it was 128 nM; in assay [3], 83.4 nM; in [4], 810 nM; in assay [5], 91.2 nM.
On the same counts, the results for `CCc1c(F)ccc2cc(O)cc(-c3nc4c5c(nc(OC[C@@]67CCCN6C[C@H](F)C7)nc5c3F)N3CCOCC3CO4)c12` (some centres unmarked) [Compound 14] are 39.4 nM, 42.3 nM, 105 nM, 702 nM and 23.9 nM.
Turning to `C#Cc1c(F)ccc2cc(O)cc(-c3nc4c5c(nc(OC[C@@]67CCCN6C[C@H](F)C7)nc5c3F)N3C5COCCC3(CO4)C5)c12` (some centres unmarked) [Compound 16], the IC50 in assay [6] is 43.5 nM; in [7], above 1000 nM; in assay [8] it was 57.4 nM; in [9], above 1000 nM.
Consider `C#Cc1c(F)ccc2cc(O)cc(-c3nc4c5c(nc(OC[C@@]67CCCN6C[C@H](F)C7)nc5c3F)N3CCCCC3CO4)c12` (some centres unmarked) [Compound 19], for which the half-maximal inhibitory concentration (IC50) in [1] is 2.32 nM; in [2] it was 5.13 nM.
For the compound `C#Cc1c(F)ccc2cc(O)cc(-c3nc4c5c(nc(OC[C@@]67CCCN6C[C@H](F)C7)nc5c3F)N3CCCCC[C@H]3CO4)c12` [Compound 20], the IC50 in [1] worked out at 0.691 nM; in assay [2], 2.01 nM; in assay [3], 1.23 nM; in [4] it was 10.2 nM; in assay [5] it was 1.49 nM.
The like results for `C#Cc1c(F)ccc2cc(O)cc(-c3nc4c5c(nc(OC[C@@]67CCCN6C[C@H](F)C7)nc5c3F)N3CCCC3CO4)c12` (some centres unmarked) [Compound 21] were, in that order, 19.7 nM, 60.6 nM, 99 nM, 547 nM and 35.1 nM.
On the same counts, the results for `C#Cc1c(F)ccc2cc(O)cc(-c3nc4c5c(nc(OC[C@@]67CCCN6C[C@H](F)C7)nc5c3F)N3CCCCCC3CO4)c12` (some centres unmarked) [Compound 22] are 1.38 nM, 3.05 nM, 2.59 nM, 15.6 nM and 1.32 nM.
Take `C#Cc1c(F)ccc2cc(O)cc(-c3nc4c5c(nc(OC[C@@]67CCCN6C[C@H](F)C7)nc5c3F)N3CCCCC3CCO4)c12` (some centres unmarked) [Compound 23]: the IC50 in assay [1] was found to be 23 nM; in [2], 50.1 nM.

The values above are taken from patent publication US20250034166A1, “POLYCYCLIC FUSED RING DERIVATIVES AND USE THEREOF” (Jacobio Pharmaceuticals Co., Ltd., priority 2021, published 2025).
